The values that follow come from patent publication US20210275498A1, “IMIDAZOLYL ETHANAMIDE PENTANDIOIC ACID FOR USE IN THERAPY OF SYMPTOMS RELATED TO EXPOSURE TO LETHAL RADIATION” (priority 2018, published 2021).

The experiment relates to C57BL/6 mice. Nature of the experiment: Mortality / survival to Day 30 after whole-body irradiation (5.8 Gy or 6.0 Gy). The experiment is classed as in vivo. As to conditions: for Quantity ratio of survival probability (dose reduction factor, DRF), day 30, relative to control group: vs VL (POx1). The text has this: Based on a previously reported study (Williams et al. 2010, Plett et al. 2012, Chua et al. 2014, Singh et al., 2015), the mouse model was developed to investigate LD25 and LD50. The whole-body irradiation and selected dose serve as a translational in vivo model mimicking possible radiation exposure to humans following a nuclear incident.
Animals (C57BL/6 mice) were supplied by Jackson Laboratories (Bar Harbor, Me. facility). Animals were maintained at SNBL USA (Everett, Wash. facility) as stock prior to study assignment and were screened for health by veterinary staff prior to use on study. 205 animals were assigned to treatment groups.
Oral application of Myelo001 would be conducive for nuclear or other radiation incidents and was chosen for this study. […] The human equivalent dose is estimated to be 4 mg/kg based on allometric calculations.
Based on the ARS Scoring SNBL SOP, if the sum of the three parameter scores totaled 8 or higher, the animal was considered moribund and was euthanized with an unscheduled necropsy performed according to the moribund animal SOP.
Cageside mortality checks were conducted per SOP, twice daily after Day −3. Morning and afternoon checks began 2 to 3 hours after the completion of the respective ARS scorings. Individual assessments were only documented for apparently moribund animals by re-scoring, or for found dead animals by removal.
Survival data were summarized descriptively and graphically using the Kaplan-Meier method. Further, death rates were tabulated by treatment. The equality of two or more survivor curves was tested with log rank tests. In addition, Cox-regression models were used to estimate hazard ratios, p-values and 95% confidence intervals (95% CI).
The focus of the survival analysis is irradiation related death between irradiation on Day 0 and Day 30. Thus, the scheduled necropsies on Day 7 and Day 14 or deaths unrelated to radiation (Animals 2041, 9012 and 9021) were considered as censored events.

The mark [1] stands for this setting: Group 3 ML (IPx2): 25 mg/kg IP, Day −3 to 0 (6x), prophylactic, 5.8 Gy.
Where [2] appears, read: Group 4 ML (POx2): 25 mg/kg per os, Day −3 to 0 (6x), prophylactic, 5.8 Gy.
[3] abbreviates: Group 5 ML (POx1): 50 mg/kg per os SID Day −2, −1, 0, prophylactic, 5.8 Gy.
[4] abbreviates: Group 9 MH (POx1): 50 mg/kg per os SID Day 1, 2, 3, therapeutic, 6.0 Gy.
Setting [5] is: Group 6 GL (SCx1): 0.34 mg/kg SC SID Day 1, 2, 3, therapeutic, 5.8 Gy.

Turning to `O=C(O)CCCC(=O)NCCc1c[nH]cn1` [Myelo001, 5-{[2-(1H-imidazol-4-yl)ethyl]amino}-5-oxo-pentanoic acid], the “Dead (irradiation related deaths)” value under setting [1] is 3, the “Dead (irradiation related deaths)” value under setting [2] stood at 6, the “Dead (irradiation related deaths)” value under setting [3] came out at 3 and the “Dead (irradiation related deaths)” value under setting [4] was determined as 3. Also, the “Irradiation related death rate, Rate (per 100 Days)” value amounted to 1.30 per 100 Days under setting [1], 0.96 per 100 Days under setting [2], 0.44 per 100 Days under setting [3] and 0.48 per 100 Days under setting [4]. Besides, the “Survival after 30 days (Kaplan-Meier estimate)” value under setting [1] is given as 0.54. The “Time at Risk” value is 231 days under setting [1], 627 days under setting [2], 680 days under setting [3] and 611 days under setting [4]. For the same molecule, the “Time to 10% death, Time” value runs as follows: under setting [1], 13 days; under setting [2], 15 days; under setting [3], 21 days; under setting [4], 23 days. Also, the “Hazard ratio (Cox regression, risk of radiation induced death)” value is, setting by setting: (Group 3 ML (IPx2): 25 mg/kg IP, Day −3 to 0 (6x), prophylactic, 5.8 Gy, reference group VL (POx1), 2) 2.48; (Group 4 ML (POx2): 25 mg/kg per os, Day −3 to 0 (6x), prophylactic, 5.8 Gy, reference group VL (POx1), 2) 1.49; (Group 5 ML (POx1): 50 mg/kg per os SID Day −2, −1, 0, prophylactic, 5.8 Gy, reference group VL (POx1), 2) 0.64; (Group 9 MH (POx1): 50 mg/kg per os SID Day 1, 2, 3, therapeutic, 6.0 Gy, reference group VH (POx1), 8) 0.32. The “Quantity ratio of survival probability (dose reduction factor, DRF), day 30, relative to control group” value (Group 3 ML (IPx2): 25 mg/kg IP, Day −3 to 0 (6x), prophylactic, 5.8 Gy, 2) turned out to be 0.7. For the setting “Group 9 MH (POx1): 50 mg/kg per os SID Day 1, 2, 3, therapeutic, 6.0 Gy (LD50/30), control Group 8 56%”, this molecule returned a survival of 86%.

B1: G-CSF: Neupogen (Filgrastim; Granulocyte colony-stimulating factor; G-CSF), positive control article, Amgen (protein, UniProt P09919 31-207, looked up)
Granulocyte …: TPLGPASSLPQSFLLKCLEQVRKIQGDGAALQEKLVSECATYKLCHPEELVLLGHSLGIPWAPLSSCPSQALQLAGCLSQLHSGLFLYQGLLQALEGISPELGPTLDTLQLDVADFATTIWQQMEELGMAPALQPTQGAMPAFASAFQRRAGGVLVASHLQSFLEVSYRVLRHLAQP
modifications: filgrastim
notes: Neupogen (Filgrastim; Granulocyte colony-stimulating factor; G-CSF), positive control article, Amgen
In the case of B1, under setting [5], the “Dead (irradiation related deaths)” value is reported as 1; the “Irradiation related death rate, Rate (per 100 Days)” value was 0.42 per 100 Days; the “Survival after 30 days (Kaplan-Meier estimate)” value is 0.90; the “Time at Risk” value was 237 days. Besides, the “Time to 10% death, Time” value under setting [5] stood at 12 days. Moreover, the “Hazard ratio (Cox regression, risk of radiation induced death)” value (Group 6 GL (SCx1): 0.34 mg/kg SC SID Day 1, 2, 3, therapeutic, 5.8 Gy, reference group VL (POx1), 2) stood at 0.72. For the same molecule, for the setting “Group 6 GL (SCx1): 0.34 mg/kg SC SID Day 1, 2, 3, therapeutic, 5.8 Gy, 2”, the “Quantity ratio of survival probability (dose reduction factor, DRF), day 30, relative to control group” value is 1.1.
